Data: article PMC6445195, “Synthesis and biological evaluation of aminomethyl and alkoxymethyl derivatives as carbonic anhydrase, acetylcholinesterase and butyrylcholinesterase inhibitors” (Journal of Enzyme Inhibition and Medicinal Chemistry, 2017)
Where “and” joins values, the source holds several entries; their conditions need not be identical. Equal entries are not always repeated. Where two headings read alike, the source gives them in different places.

Legend:
Experiment in all cases: biochemical
Assay type in all cases: biochemical
AChE = AChE (Homo sapiens, UniProt P22303); details: for AChE/BChE (proportion of AChE to BChE, selectivity): ratio of Ki AChE to Ki BChE
Experimental: (§1) Acetylthiocholine iodide (AChI) and butyrylthiocholine iodide (BChI) were used as substrates for the reaction. 5,5′-Dithio-bis(2-nitro-benzoic)acid (DTNB) was used for the measurement of the AChE/BChE activities. Briefly, 1.0 ml of Tris/HCl buffer (1.0 M, pH 8.0), and 10 µL of sample solution were dissolved in deionized water at different concentrations and 50 µL AChE/BChE solution were mixed and incubated for 10 min at 25 °C. Next 50 µL of DTNB (0.5 mM) was added. The reaction was then initiated by the addition of 50 µL of AChI or BChI.

BChE = BChE (Homo sapiens, UniProt P06276)
Experimental: as §1

hCA II = target: T1, hCA II (Homo sapiens, UniProt P00918)
T1 construct: from tissue; host or cells: fresh human erythrocytes
Experimental: (§2) CA activity was determined using the previously described spectrophotometric procedure of Verpoorte et al. as explained previously.[21] ^, [57] ^, [58] […] The quantity of protein was measured according to the previously described by Bradford method.[61–64] and bovine serum albumin was used as the standard.[65] ^, [66] After the purification method of the CA isoforms, samples were subjected to SDS polyacrylamide gel electrophoresis (SDS-PAGE).[67–69] […] The IC50 values were calculated from activity (%) against compounds inhibition.[72–74] Three various concentrations were used to calculate Ki values.[75–77]

hCA I = target: T2, hCA I (Homo sapiens, UniProt P00915)
T2 construct: from tissue; host or cells: fresh human erythrocytes
Experimental: as §2

[1] = Ellman, Tris/HCl pH 8.0, 25 °C, read-out: IC50 AChE
[2] = purified from human erythrocytes, PNA substrate, 22 °C, read-out: IC50 hCA II
[3] = three concentrations used, read-out: Ki hCA II
[4] = purified from human erythrocytes, PNA substrate, 22 °C, read-out: IC50 hCA I
[5] = three concentrations used, read-out: Ki hCA I
[6] = Ellman, Tris/HCl pH 8.0, 25 °C, read-out: IC50 BChE

AChE, sequence (P22303 32-614): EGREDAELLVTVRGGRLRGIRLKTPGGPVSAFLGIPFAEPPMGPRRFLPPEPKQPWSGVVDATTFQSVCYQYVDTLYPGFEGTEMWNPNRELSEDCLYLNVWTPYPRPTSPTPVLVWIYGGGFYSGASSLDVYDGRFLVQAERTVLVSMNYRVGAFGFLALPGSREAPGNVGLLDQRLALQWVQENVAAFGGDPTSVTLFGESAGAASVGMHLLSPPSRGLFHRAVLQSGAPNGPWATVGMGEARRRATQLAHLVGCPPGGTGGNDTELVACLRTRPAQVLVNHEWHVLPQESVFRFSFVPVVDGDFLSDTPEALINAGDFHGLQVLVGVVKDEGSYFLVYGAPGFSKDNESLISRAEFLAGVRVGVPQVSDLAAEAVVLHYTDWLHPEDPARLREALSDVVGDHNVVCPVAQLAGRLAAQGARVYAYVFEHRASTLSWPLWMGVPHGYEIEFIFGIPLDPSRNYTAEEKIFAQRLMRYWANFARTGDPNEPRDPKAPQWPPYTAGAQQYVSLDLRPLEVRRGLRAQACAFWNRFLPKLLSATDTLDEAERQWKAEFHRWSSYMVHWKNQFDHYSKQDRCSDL
BChE, sequence (P06276 29-602): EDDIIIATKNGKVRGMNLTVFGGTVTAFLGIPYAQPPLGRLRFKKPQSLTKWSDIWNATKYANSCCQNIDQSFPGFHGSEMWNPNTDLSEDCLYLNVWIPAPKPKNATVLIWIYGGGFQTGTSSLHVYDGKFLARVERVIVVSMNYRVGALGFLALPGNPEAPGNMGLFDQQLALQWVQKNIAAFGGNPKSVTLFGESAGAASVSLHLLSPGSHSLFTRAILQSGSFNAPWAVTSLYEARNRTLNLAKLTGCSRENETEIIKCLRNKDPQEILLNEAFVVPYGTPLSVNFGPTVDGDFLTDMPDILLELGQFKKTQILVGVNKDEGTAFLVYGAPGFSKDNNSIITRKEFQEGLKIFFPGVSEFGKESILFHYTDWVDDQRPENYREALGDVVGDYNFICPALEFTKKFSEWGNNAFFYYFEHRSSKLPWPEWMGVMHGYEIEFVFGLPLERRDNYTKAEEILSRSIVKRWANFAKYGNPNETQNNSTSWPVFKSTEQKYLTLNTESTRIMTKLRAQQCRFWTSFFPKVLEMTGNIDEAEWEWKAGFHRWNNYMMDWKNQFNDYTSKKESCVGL
T2 sequence (P00915 whole entry): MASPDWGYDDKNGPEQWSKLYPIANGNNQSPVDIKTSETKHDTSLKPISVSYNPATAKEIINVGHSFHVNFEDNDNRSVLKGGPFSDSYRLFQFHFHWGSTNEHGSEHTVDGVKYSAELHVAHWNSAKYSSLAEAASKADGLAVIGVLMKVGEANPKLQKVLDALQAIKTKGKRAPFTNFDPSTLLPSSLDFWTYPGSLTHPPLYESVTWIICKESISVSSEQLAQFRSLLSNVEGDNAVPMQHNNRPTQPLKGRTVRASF

SMILES | IC50 (AChE; [1]) [nM] | AChE/BChE (proportion of AChE to BChE, selectivity) (AChE) | Ki (AChE; read-out: Ki AChE) [nM] | IC50 (BChE) [nM] | Ki (BChE) [nM] | IC50 (hCA II; [2]) [nM] | Ki (hCA II; [3]) [nM] | IC50 (hCA I; [4]) [nM] | Ki (hCA I; [5]) [nM] | IC50 (BChE; [6]) [nM] | Ki (BChE; read-out: Ki BChE) [nM] | fold of inhibitory activity against AChE/BChE than that of TAC (AChE; AChE/BChE selectivity relative to TAC) [fold] | IC50 (AChE) [nM] | Ki (AChE) [nM] | IC50 (hCA II) [nM] | Ki (hCA II) [nM] | IC50 (hCA I) [nM] | Ki (hCA I) [nM]
CC(C)OCn1c(=S)oc2ccccc21 [Compound 13, N-isopropoxymethylbenzoxazoline-2-thione] | 63 | 0.971 | 34 ± 5 | 83 | 35 ± 4 | 122 | 94 ± 37 | 105 | 90 ± 23 | – | – | – | – | – | – | – | – | –
S=c1oc2ccccc2n1CN1CCOCC1 [Compound 8, N-morfolinomethylbenzoxazoline-2-thion] | 38 | 1.391 | 32 ± 6 | – | – | 119 | 121 ± 40 | 94 | 58 ± 15 | 48 | 23 ± 3 | – | – | – | – | – | – | –
COCCOCn1c(=S)oc2ccccc21 [Compound 14, N-(methoxyethoxy)methyl-benzoxazoline-2-thione] | 38 | 0.388 and 0.383 | 23 ± 4 | 68 | 60 ± 13 | 128 | 142 ± 56 | 112 | 119 ± 53 | – | – | 2.22 | – | – | – | – | – | –
CCN(CC)Cn1c(=S)sc2ccccc21 [Compound 5, N-diethylaminomethylbenzothiazoline-2-thione] | – | 0.666 | – | 83 | 51 ± 9 | – | – | – | – | – | – | – | 52 | 34 ± 9 | 98 | 100 ± 24 | 82 | 70 ± 15
S=c1sc2ccccc2n1CN1CCOCC1 [Compound 1, N-oxazinomethylbenzothiazoline-2-thione] | 51 | 0.812 | 26 ± 5 | – | – | 104 | 81 ± 19 | 79 | 108 ± 35 | 88 | 32 ± 7 | – | – | – | – | – | – | –
S=c1oc2ccccc2n1CN1CCOC1 [Compound 9, N-oxazolidinomethylbenzoxazoline-2-thione] | 62 | 0.975 | 78 ± 36 | – | – | 121 | 135 ± 33 | 103 | 76 ± 20 | 84 | 80 ± 9 | – | – | – | – | – | – | –
CC(C)OCNc1nccs1 [Compound 16, 2-isopropoxymethylaminothiazole] | 76 | 0.763 | 42 ± 4 | 127 | 55 ± 12 | 167 | 162 ± 29 | 156 | 132 ± 30 | – | – | – | – | – | – | – | – | –
CCN(CC)Cn1c(=S)oc2ccccc21 [Compound 6, N-diethylaminomethylbenzoxazoline-2-thione] | 44 | 1.500 | 45 ± 11 | 80 | 30 ± 3 | 118 | 115 ± 28 | 102 | 123 ± 48 | – | – | – | – | – | – | – | – | –
S=c1sc2ccccc2n1CN1CCCCC1 [Compound 4, N-Piperidinomethylbenzothiazoline-2-thione] | 36 | 0.439 | 18 ± 2 | 82 | 41 ± 13 | 99 | 105 ± 25 | 86 | 86 ± 40 | – | – | – | – | – | – | – | – | –
COCCOCNc1nccs1 [Compound 15, 2-(methoxyethoxy) methylaminothiazole] | 43 | 0.555 | 25 ± 3 | – | – | 158 | 193 ± 79 | 128 | 118 ± 27 | 109 | 45 ± 14 | – | – | – | – | – | – | –
COCNc1nccs1 [Compound 17, 2-(methoxy)methylaminothiazole] | 80 | 1.285 | 54 ± 10 | 144 | 42 ± 20 | 187 | 215 ± 40 | 142 | 157 ± 38 | – | – | – | – | – | – | – | – | –
